Test: Inhibition of p38 kinase

IC50: 161 nM
Structure (SMILES): Fc1ccc(-c2nc3[nH]ncc3c(-c3ccc(F)cc3)c2-c2ccncc2)cc1

Source: ChEMBL document CHEMBL1141453, “Dissection of the recognition properties of p38 MAP kinase. Determination of the binding mode of a new pyridinyl-heterocycle inhibitor family” (J Med Chem, 2007)
